Experimental data as given in ChEMBL document CHEMBL3997794, “Design and synthesis of benzodiazepine analogs as isoform-selective human lysine deacetylase inhibitors” (Eur J Med Chem, 2017).

Legend:
[1] = biological target: T1, Histone deacetylase 3 (Homo sapiens, UniProt O15379); assay: Inhibition of human KDAC3 using FITC-labeled p53 acetylated peptide as substrate after 60 mins by fluorescence assay
[2] = biological target: T1, Histone deacetylase 3; assay: Inhibition of human KDAC3 at 30 uM using FITC-labeled p53 acetylated peptide as substrate after 60 mins by fluorescence assay relative to control
[3] = biological target: T2, Histone deacetylase 1 (Homo sapiens, UniProt Q13547); assay: Inhibition of human KDAC1 using substrate A after 60 mins by fluorescence assay
[4] = biological target: T3, Histone deacetylase 8 (Homo sapiens, UniProt Q9BY41); assay: Inhibition of human KDAC8 after 60 mins by fluorescence assay
T3 sequence (Q9BY41 whole entry): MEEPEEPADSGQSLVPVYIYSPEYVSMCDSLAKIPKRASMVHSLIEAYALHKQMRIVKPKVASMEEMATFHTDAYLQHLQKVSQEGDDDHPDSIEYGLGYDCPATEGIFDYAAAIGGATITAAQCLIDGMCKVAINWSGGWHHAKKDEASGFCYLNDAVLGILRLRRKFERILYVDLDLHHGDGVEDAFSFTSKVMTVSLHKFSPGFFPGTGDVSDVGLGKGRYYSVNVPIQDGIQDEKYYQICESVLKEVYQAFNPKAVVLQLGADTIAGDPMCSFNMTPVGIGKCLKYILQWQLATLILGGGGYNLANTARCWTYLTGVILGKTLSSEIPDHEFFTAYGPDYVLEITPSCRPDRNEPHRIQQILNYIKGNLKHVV

[5] = biological target: T4, Histone deacetylase 8 (Homo sapiens) (UniProt Q9BY41); assay: Inhibition of human KDAC8 at 30 uM after 60 mins by fluorescence assay relative to control
T4 sequence (whole entry): T3 sequence (Q9BY41 whole entry)

[6] = biological target: T2, Histone deacetylase 1; assay: Inhibition of human KDAC1 at 30 uM using substrate A after 60 mins by fluorescence assay relative to control
[7] = biological target: T5, Protein deacetylase HDAC6 (Homo sapiens) (UniProt Q9UBN7); details: at 30 µM
T5 sequence (whole entry): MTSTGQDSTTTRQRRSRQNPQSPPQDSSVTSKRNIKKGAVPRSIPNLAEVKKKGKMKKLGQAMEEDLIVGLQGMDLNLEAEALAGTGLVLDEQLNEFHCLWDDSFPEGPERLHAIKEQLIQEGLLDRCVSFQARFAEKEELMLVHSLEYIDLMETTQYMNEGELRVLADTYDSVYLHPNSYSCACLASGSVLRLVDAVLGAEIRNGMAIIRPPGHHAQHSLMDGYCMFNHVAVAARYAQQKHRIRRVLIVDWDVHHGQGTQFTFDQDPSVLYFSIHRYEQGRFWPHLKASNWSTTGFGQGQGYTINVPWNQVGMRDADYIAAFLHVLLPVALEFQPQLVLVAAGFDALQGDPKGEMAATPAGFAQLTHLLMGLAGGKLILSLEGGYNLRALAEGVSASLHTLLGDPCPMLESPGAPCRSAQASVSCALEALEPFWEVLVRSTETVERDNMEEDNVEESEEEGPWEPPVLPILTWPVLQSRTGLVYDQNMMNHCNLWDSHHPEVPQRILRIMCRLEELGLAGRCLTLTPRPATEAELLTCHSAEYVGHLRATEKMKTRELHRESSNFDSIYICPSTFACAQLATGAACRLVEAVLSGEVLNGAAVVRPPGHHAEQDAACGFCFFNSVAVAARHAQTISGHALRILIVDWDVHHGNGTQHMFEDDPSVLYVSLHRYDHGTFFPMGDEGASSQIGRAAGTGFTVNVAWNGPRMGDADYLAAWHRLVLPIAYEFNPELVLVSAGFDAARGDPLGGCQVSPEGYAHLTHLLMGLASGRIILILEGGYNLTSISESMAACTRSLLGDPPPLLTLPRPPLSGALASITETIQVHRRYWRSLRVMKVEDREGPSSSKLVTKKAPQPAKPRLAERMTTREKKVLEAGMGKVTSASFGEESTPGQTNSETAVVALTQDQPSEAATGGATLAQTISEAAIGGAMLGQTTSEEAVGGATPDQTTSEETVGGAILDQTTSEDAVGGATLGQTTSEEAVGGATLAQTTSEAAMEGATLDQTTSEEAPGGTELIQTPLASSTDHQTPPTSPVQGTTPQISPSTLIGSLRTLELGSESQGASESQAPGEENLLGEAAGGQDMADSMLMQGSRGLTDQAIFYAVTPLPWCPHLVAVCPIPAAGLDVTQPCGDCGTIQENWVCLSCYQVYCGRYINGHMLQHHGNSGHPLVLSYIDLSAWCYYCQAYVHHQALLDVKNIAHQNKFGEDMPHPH
Description: Inhibition of human KDAC6 at 30 uM using FITC-labeled histone H4 acetylated peptide as substrate after 60 mins by fluorescence assay relative to control

[8] = biological target: T6, Protein deacetylase HDAC6 (Homo sapiens, UniProt Q9UBN7); assay: Inhibition of human KDAC6 using FITC-labeled histone H4 acetylated peptide as substrate after 60 mins by fluorescence assay
T6 sequence (Q9UBN7 whole entry): T5 sequence (whole entry)

T2 sequence (Q13547 whole entry): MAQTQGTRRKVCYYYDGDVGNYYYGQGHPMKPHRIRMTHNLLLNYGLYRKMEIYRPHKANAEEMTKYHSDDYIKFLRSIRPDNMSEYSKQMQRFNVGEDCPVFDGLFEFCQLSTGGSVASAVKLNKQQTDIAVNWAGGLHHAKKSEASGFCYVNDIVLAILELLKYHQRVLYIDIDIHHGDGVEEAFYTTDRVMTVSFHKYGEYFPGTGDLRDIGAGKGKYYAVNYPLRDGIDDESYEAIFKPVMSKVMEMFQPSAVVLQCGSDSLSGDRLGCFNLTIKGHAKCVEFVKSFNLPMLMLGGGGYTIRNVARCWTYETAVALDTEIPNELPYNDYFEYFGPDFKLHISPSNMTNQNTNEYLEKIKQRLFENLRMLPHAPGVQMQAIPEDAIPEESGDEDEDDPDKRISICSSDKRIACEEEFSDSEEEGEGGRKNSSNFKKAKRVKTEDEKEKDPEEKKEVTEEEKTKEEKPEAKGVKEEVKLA
T1 sequence (O15379 whole entry): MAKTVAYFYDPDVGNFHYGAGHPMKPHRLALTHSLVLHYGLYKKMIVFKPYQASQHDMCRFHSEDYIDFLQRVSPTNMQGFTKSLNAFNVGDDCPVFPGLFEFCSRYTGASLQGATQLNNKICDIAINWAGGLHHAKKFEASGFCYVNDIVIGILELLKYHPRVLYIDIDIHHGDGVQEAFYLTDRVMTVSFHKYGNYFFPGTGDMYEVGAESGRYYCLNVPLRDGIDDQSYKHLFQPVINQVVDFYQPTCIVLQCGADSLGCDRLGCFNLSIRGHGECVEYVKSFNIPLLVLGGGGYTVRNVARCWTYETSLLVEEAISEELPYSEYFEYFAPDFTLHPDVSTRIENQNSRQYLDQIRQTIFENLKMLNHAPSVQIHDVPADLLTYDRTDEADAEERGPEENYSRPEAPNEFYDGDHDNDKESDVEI

Structure (SMILES) | IC50 [1] | inhibition [2] | IC50 [3] | IC50 [4] | inhibition [5] | inhibition [6] | inhibition [7] | IC50 [8]
O=C(CCCCN1C(=O)[C@H](Cc2cnc[nH]2)N=C(c2ccccc2)c2ccccc21)NO | 1.32 µM | 99% | 13.9 µM | > 30 µM | 42.4% | 61.4% | 84.6% | 4.98 µM
CC[C@@H](C)[C@@H]1N=C(c2ccccc2)c2ccccc2N(CCCCC(=O)NO)C1=O | 1.03 µM | 96.4% | 11 µM | > 30 µM | 33.1% | 75.1% | 90.9% | 3.75 µM
CC(C)(C)OC(=O)C[C@H]1N=C(c2ccccc2)c2ccccc2NC1=O | > 30 µM | 0% | > 30 µM | > 30 µM | 0% | 0.37% | 0% | > 30 µM
CSCC[C@@H]1N=C(c2ccccc2)c2ccccc2N(CCCCC(=O)NO)C1=O | 0.43 µM | 98.9% | 6.43 µM | 20.3 µM | 57.7% | 81.6% | 93.1% | 1.7 µM
CC[C@H](C)[C@@H]1N=C(c2ccccc2)c2ccccc2N(CCCCC(=O)O)C1=O | > 30 µM | 0% | > 30 µM | > 30 µM | 3.99% | 0% | 0% | > 30 µM
CC(C)(C)OC(=O)CC[C@@H]1N=C(c2ccccc2)c2ccccc2N(CCCCC(=O)O)C1=O | > 30 µM | 23.9% | > 30 µM | > 30 µM | 9.85% | 7.96% | 0% | > 30 µM
O=C(O)CCCCN1C(=O)CN=C(c2ccccc2)c2ccccc21 | > 30 µM | 0% | > 30 µM | > 30 µM | 4.33% | 6.45% | 0% | > 30 µM
O=C(O)CCCCN1C(=O)[C@H](CC(=O)O)N=C(c2ccccc2)c2ccccc21 | > 30 µM | 1.93% | > 30 µM | > 30 µM | 0% | 0% | 0% | > 30 µM
CC(C)(C)OC(=O)NCCCC[C@@H]1N=C(c2ccccc2)c2ccccc2NC1=O | > 30 µM | 0% | > 30 µM | > 30 µM | 0% | 2.97% | 0% | > 30 µM
CC(C)C[C@@H]1N=C(c2ccccc2)c2ccccc2N(CCCCC(=O)NO)C1=O | 0.57 µM | 98.5% | 5.9 µM | > 30 µM | 45.2% | 80.5% | 91.6% | 2.33 µM
C[C@H](OCc1ccccc1)[C@@H]1N=C(c2ccccc2)c2ccccc2N(CCCCC(=O)O)C1=O | > 30 µM | 0% | > 30 µM | > 30 µM | 15.4% | 2.94% | 0% | > 30 µM
CC(C)[C@@H]1N=C(c2ccccc2)c2ccccc2NC1=O | > 30 µM | 0% | > 30 µM | > 30 µM | 0% | 0% | 3.25% | > 30 µM
C[C@@H]1N=C(c2ccccc2)c2ccccc2N(CCCCC(=O)O)C1=O | > 30 µM | 0% | > 30 µM | > 30 µM | 8.87% | 11.3% | 0.27% | > 30 µM
COC(=O)CCCCN1C(=O)[C@H](CCSC)N=C(c2ccccc2)c2ccccc21 | > 30 µM | 0% | > 30 µM | > 30 µM | 0% | 0% | 0% | > 30 µM
O=C(CC[C@@H]1N=C(c2ccccc2)c2ccccc2NC1=O)NO | > 30 µM | 4.57% | 16.9 µM | > 30 µM | 43.8% | 64.4% | 36.5% | > 30 µM
COC(=O)CCCCN1C(=O)[C@H](Cc2ccc(OC(C)(C)C)cc2)N=C(c2ccccc2)c2ccccc21 | > 30 µM | 0.98% | > 30 µM | > 30 µM | 0% | 8.72% | 0% | > 30 µM
CC(C)(C)OC(=O)C[C@@H]1N=C(c2ccccc2)c2ccccc2NC1=O | > 30 µM | 3.95% | > 30 µM | > 30 µM | 5.34% | 9.6% | 0% | > 30 µM
